ChEMBL document CHEMBL5365513, “Discovery of Selective Tertiary Amide Inhibitors of Cyclin-Dependent Kinase 2 (CDK2)” (ACS Med Chem Lett, 2023)
Values after ≈ are worked out from the molar mass of the structure shown. Active and inactive are the calls of the source. The rule behind the calls is not given here.

Columns and labels:
[1] = Apparent permeability across apical to basolateral side in MDCK cells at 5 uM measured for 60 to 180 mins by LC-MS/MS analysis; format: ADME, cell-based, Canis lupus familiaris; conditions: dog, time 60-180 min
[2] = Antiproliferative activity against human OVISE cells assessed as inhibition of cell division incubated for 16 hrs by EdU incorporation assay; format: functional, cell-based
[3] = Selectivity ratio of Ki for CDK4/Cyclin D3 (unknown origin) to Ki for CDK2/Cyclin E1 (unknown origin)
[4] = Metabolic stability in human liver microsomes assessed as clearance at 1 uM incubated upto 180 mins by LC/MS-MS analysis; format: ADME, Microsome
[5] = Metabolic stability in mouse liver microsomes assessed as clearance at 1 uM incubated upto 180 mins by LC/MS-MS analysis; format: ADME, Microsome
[6] = Selectivity ratio of IC50 for human SK-OV-3 cells to IC50 for human OVISE cells; format: functional
[7] = target: Cyclin-dependent kinase 2/cyclin E1 (Homo sapiens, UniProt P24941); experiment: Binding affinity to CDK2/Cyclin E1 (unknown origin) using Ulight-MBP as substrate assessed as inhibition constant preincubated for 30 mins followed by substrate addition measured after 90 mins in presence of ATP by TR-FRET assay; format: protein-complex assay
[8] = Selectivity ratio of Ki for ERK2 (unknown origin) to Ki for CDK2/Cyclin E1 (unknown origin)
[9] = Half life in CD-1 mouse at 1 mg/kg, iv measured for 5 mins by LC-MS/MS analysis; format: ADME, organism-based; conditions: in vivo
[10] = Protein binding in human plasma assessed as unbound fraction incubated for 24 hrs by HPLC analysis; format: ADME, cell-free
OVCAR-3 = experiment: Antitumor activity against human OVCAR-3 cells xenografted in C.B-17 SCID.bg mouse assessed as tumor growth inhibition at 80 mg/kg, po qd treated for 3 days relative to control; format: functional; conditions: OVCAR-3, 72 h, time 3 day, read-out: TGI
[11] = target: Cyclin-dependent kinase 1 (Homo sapiens) (UniProt P06493); experiment: Inhibition of CDK1 (unknown origin) at 0.1 uM
Sequence of Cyclin-dependent kinase 1 (Homo sapiens) (P06493 whole entry, looked up): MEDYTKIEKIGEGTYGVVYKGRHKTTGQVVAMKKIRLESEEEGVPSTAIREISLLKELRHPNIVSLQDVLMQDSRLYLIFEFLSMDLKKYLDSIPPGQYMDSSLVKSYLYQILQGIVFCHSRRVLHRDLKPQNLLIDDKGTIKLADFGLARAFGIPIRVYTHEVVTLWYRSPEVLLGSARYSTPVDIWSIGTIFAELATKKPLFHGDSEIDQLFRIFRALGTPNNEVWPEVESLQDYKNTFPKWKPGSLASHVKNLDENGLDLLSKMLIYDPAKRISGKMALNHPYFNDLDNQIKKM

[12] = Kinetic solubility of compound; format: physicochemical; conditions: read-out: Kinetic_solubility
[13] = Oral bioavailability in CD-1 mouse at 50 mg/kg measured for 24 hrs by LC-MS/MS analysis; format: ADME, organism-based; conditions: in vivo
MDR1 = experiment: Efflux ratio of apparent permeability across basolateral to apical side to apical to basolateral side in MDCK-MDR1 cells at 5 uM measured for 60 to 180 mins by LC-MS/MS analysis; format: ADME, cell-based, Canis lupus familiaris; conditions: dog, time 60-180 min
[14] = Volume of distribution at steady state in CD-1 mouse at 1 mg/kg, iv measured for 5 mins by LC-MS/MS analysis; format: ADME, organism-based; conditions: in vivo
[15] = Lipophilicity, logD of compound at pH 7.4; format: physicochemical; conditions: buffer
[16] = AUC (infinity) in CD-1 mouse at 50 mg/kg, po measured for 24 hrs by LC-MS/MS analysis; format: ADME, organism-based; parameters: time 24 hrs, dose 50 mg/kg, route po; conditions: in vivo
[17] = Clearance in CD-1 mouse at 1 mg/kg, iv measured for 5 mins by LC-MS/MS analysis; format: ADME, organism-based; conditions: in vivo
[18] = target: Mitogen-activated protein kinase 1 (Homo sapiens, UniProt P28482); experiment: Binding affinity to ERK2 (unknown origin) using Ulight-MBP as substrate assessed as inhibition constant preincubated for 30 mins followed by substrate addition measured after 90 mins in presence of ATP by TR-FRET assay
Sequence of Mitogen-activated protein kinase 1 (P28482 whole entry): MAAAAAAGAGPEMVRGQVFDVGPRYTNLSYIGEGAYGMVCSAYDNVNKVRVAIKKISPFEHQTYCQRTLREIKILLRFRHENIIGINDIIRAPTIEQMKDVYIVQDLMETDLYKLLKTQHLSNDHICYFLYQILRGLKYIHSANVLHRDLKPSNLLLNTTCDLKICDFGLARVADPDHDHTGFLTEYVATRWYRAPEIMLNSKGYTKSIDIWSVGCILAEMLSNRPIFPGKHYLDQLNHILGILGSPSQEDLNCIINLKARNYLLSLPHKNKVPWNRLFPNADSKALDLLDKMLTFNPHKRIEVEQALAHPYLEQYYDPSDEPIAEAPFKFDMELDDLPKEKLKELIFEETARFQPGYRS

[19] = Selectivity ratio of Ki for CDK1/Cyclin A2 (unknown origin) to Ki for CDK2/Cyclin E1 (unknown origin)

SMILES: CNS(=O)(=O)c1ccc(Nc2ncc3ccc(C(=O)N4C[C@@H](F)C[C@@H]4C)nc3n2)c(C)c1
- Papp A→B at 5 µM [1]: 1.6 ×10⁻⁶ cm/s
- IC50 [2]: 250 nM
- Ratio Ki [3]: 270
- CLhep predicted at 1 µM [4]: 12 mL/min/kg
- CLhep predicted at 1 µM [5]: 19 mL/min/kg
- Ratio IC50 [6]: 48
- Ki [7]: 0.63 nM

SMILES: C[C@@H]1CCCN1C(=O)c1ccc2cnc(NC3CCN(S(C)(=O)=O)CC3)nc2c1
- Ratio Ki [3]: 55
- Ratio Ki [8]: > 10000
- CLhep predicted at 1 µM [4]: < 3.9 mL/min/kg
- CLhep predicted at 1 µM [5]: 37 mL/min/kg
- Ki [7]: 0.17 nM

SMILES: COCc1cc(C(=O)Nc2cc([C@H]3CC[C@@H](OC(=O)NC(C)C)C3)[nH]n2)n(C)n1 [TEGTOCICLIB]
- IC50 [2]: 160 nM

SMILES: CNS(=O)(=O)c1ccc(Nc2ncc3ccc(C(=O)N4CC[C@@H]4C)nc3n2)c(F)c1
- t1/2 ([9]; mouse, iv, 1 mg/kg, 5 min): 17.4 min
- Papp A→B at 5 µM [1]: 15 ×10⁻⁶ cm/s
- Fu [10]: 0.26%
- IC50 [2]: 38 nM
- Ratio Ki [3]: 250
- inhibition in vivo at 80 mg/kg (OVCAR-3): 85%
- inhibition [11]: Active
- solubility kinetic [12]: 31 µM (≈ 13.3 µg/mL)
- CLhep predicted at 1 µM [4]: 18 mL/min/kg
- CLhep predicted at 1 µM [5]: 50 mL/min/kg
- Ratio IC50 [6]: 50
- bioavailability [13]: 9%
- efflux ratio at 5 µM (MDR1): 13
- Vdss ([14]; mouse, iv, 1 mg/kg, 5 min): 1.1 L/kg
- logD [15]: 1.8
- Ki [7]: 0.18 nM
- AUC(0-inf) [16]: 11 µM·h

SMILES: C[C@H]1CCCN1C(=O)c1ccc2cnc(NC3CCN(S(N)(=O)=O)CC3)nc2c1
- Ratio Ki [3]: 78
- Ratio Ki [8]: 2800
- CLhep predicted at 1 µM [4]: < 3.9 mL/min/kg
- CLhep predicted at 1 µM [5]: 30 mL/min/kg
- Ki [7]: 0.18 nM

SMILES: CNS(=O)(=O)c1ccc(Nc2ncc3ccc(C(=O)N4CCC[C@@H]4C)cc3n2)c(C)c1
- Ratio Ki [3]: 813
- Ratio Ki [8]: 4800
- CLhep predicted at 1 µM [4]: 18 mL/min/kg
- CLhep predicted at 1 µM [5]: 75 mL/min/kg
- Ki [7]: 0.16 nM

SMILES: C[C@H]1CCN1C(=O)c1ccc2cnc(NC3CCN(S(C)(=O)=O)CC3)nc2c1
- Ratio Ki [3]: 16
- CLhep predicted at 1 µM [4]: < 3.9 mL/min/kg
- CLhep predicted at 1 µM [5]: < 14 mL/min/kg
- Ki [7]: 0.13 nM

SMILES: CNS(=O)(=O)c1ccc(Nc2ncc3ccc(C(=O)N4C[C@@H](C#N)[C@@H]4C)nc3n2)c(F)c1
- half-life ([9]; CD-1, mouse): 21.6 min
- Papp A→B at 5 µM [1]: 5 ×10⁻⁶ cm/s
- Fu [10]: 0.31%
- IC50 [2]: 53 nM
- Ratio Ki [3]: 186
- solubility kinetic [12]: 3 µM (≈ 1.37 µg/mL)
- CLhep predicted at 1 µM [4]: 11 mL/min/kg
- CLhep predicted at 1 µM [5]: 53 mL/min/kg
- Ratio IC50 [6]: 83
- bioavailability [13]: 3%
- Vd ([14]; CD-1, mouse, read-out: Vdss): 0.35 L/kg
- logD [15]: 1.5
- Ki [7]: 0.44 nM
- AUC(0-inf) [16]: 5.5 µM·h
- clearance [17]: 18 mL/min/kg

SMILES: O=C(N[C@H](CO)c1ccc(Cl)c(F)c1)c1ccc2cnc(NC3CCOCC3)cc2n1
- Ki [18]: 0.36 nM
- Ki [7]: 11 nM

SMILES: CS(=O)(=O)N1CCC(Nc2ncc3ccc(C(=O)N4CCCC4)cc3n2)CC1
- Ratio Ki [3]: 16
- Ratio Ki [8]: 330
- CLhep predicted at 1 µM [4]: < 3.9 mL/min/kg
- CLhep predicted at 1 µM [5]: 20 mL/min/kg
- Ki [7]: 9 nM

SMILES: C[C@@]1(O)CCC[C@H]1n1c(=O)c(C(F)F)cc2cnc(NC3CCN(S(C)(=O)=O)CC3)nc21 [EBVACICLIB]
- IC50 [2]: 46 nM

SMILES: CC1CCCCN1C(=O)c1ccc2cnc(NC3CCOCC3)cc2n1 (racemic)
- Ratio Ki [8]: 13
- Ki [7]: 750 nM

SMILES: Cc1cc(S(C)(=O)=O)ccc1Nc1ncc2ccc(C(=O)N3CCC[C@@H]3C)cc2n1
- Ratio Ki [3]: 42
- Ratio Ki [8]: 310
- CLhep predicted at 1 µM [4]: 13 mL/min/kg
- CLhep predicted at 1 µM [5]: 58 mL/min/kg
- Ki [7]: 17 nM

SMILES: O=C(c1ccc2cnc(NC3CCOCC3)cc2n1)N1CCCCCC1
- Ratio Ki [8]: 28
- Ki [7]: 240 nM

SMILES: O=C(c1ccc2cnc(NC3CCOCC3)cc2n1)N1CCCC1
- Ratio Ki [8]: 6.8
- Ki [7]: 88 nM

SMILES: O=C(N[C@H](CO)c1ccc(Cl)c(F)c1)c1ccc2cnc(NC3CCOCC3)nc2c1
- Ki [18]: 0.22 nM
- Ki [7]: 7.9 nM

SMILES: CNS(=O)(=O)c1ccc(Nc2ncc3ccc(C(=O)N4C[C@@H](F)C[C@@H]4C)nc3n2)c(F)c1
- Papp A→B at 5 µM [1]: 4.9 ×10⁻⁶ cm/s
- IC50 [2]: 260 nM
- Ratio Ki [3]: 155
- CLhep predicted at 1 µM [4]: 13 mL/min/kg
- CLhep predicted at 1 µM [5]: 56 mL/min/kg
- Ratio IC50 [6]: 38
- Ki [7]: 1.1 nM

SMILES: O=C(c1ccc2cnc(NC3CCOCC3)cc2n1)N1CCCCC1
- Ratio Ki [8]: 4.3
- Ki [7]: 920 nM

SMILES: CNS(=O)(=O)c1ccc(Nc2ncc3ccc(C(=O)N4C[C@@H](F)[C@@H]4C)nc3n2)c(F)c1
- Papp A→B at 5 µM [1]: 15 ×10⁻⁶ cm/s
- IC50 [2]: 33 nM
- Ratio Ki [3]: 271
- CLhep predicted at 1 µM [4]: 17 mL/min/kg
- CLhep predicted at 1 µM [5]: 50 mL/min/kg
- Ratio IC50 [6]: 88
- Ki [7]: 0.21 nM

SMILES: CNS(=O)(=O)c1ccc(Nc2ncc3ccc(C(=O)N4C[C@H](F)C[C@@H]4C)cc3n2)c(C)c1
- IC50 [2]: 1500 nM
- Ratio Ki [3]: 72
- CLhep predicted at 1 µM [4]: 14 mL/min/kg
- CLhep predicted at 1 µM [5]: 67 mL/min/kg
- Ratio IC50 [6]: 13
- Ki [7]: 8.7 nM

SMILES: CC[C@H](Nc1nc(NCc2cnc(C)cc2C)c2ncn(C(C)C)c2n1)[C@@H](C)O [CYC-065]
- IC50 [2]: 1100 nM
- Ratio Ki [3]: 57
- Ratio Ki [19]: 61

SMILES: CNS(=O)(=O)c1ccc(Nc2ncc3ccc(C(=O)N4C[C@@H](O)[C@@H]4C)nc3n2)c(F)c1
- Papp A→B at 5 µM [1]: < 1 ×10⁻⁶ cm/s
- IC50 [2]: 430 nM
- Ratio Ki [3]: 89
- CLhep predicted at 1 µM [4]: < 3.9 mL/min/kg
- CLhep predicted at 1 µM [5]: < 14 mL/min/kg
- Ratio IC50 [6]: 47
- Ki [7]: 1 nM

SMILES: CNS(=O)(=O)c1ccc(Nc2ncc3ccc(C(=O)N4CCC[C@@H]4C)cc3n2)cc1
- Ratio Ki [3]: 150
- Ratio Ki [8]: 850
- CLhep predicted at 1 µM [4]: 19 mL/min/kg
- CLhep predicted at 1 µM [5]: 76 mL/min/kg
- Ki [7]: 0.34 nM

SMILES: C[C@H]1CCCN1C(=O)c1ccc2cnc(NC3CCN(S(C)(=O)=O)CC3)nc2c1
- Ratio Ki [3]: 4.2
- Ratio Ki [8]: 110
- CLhep predicted at 1 µM [4]: < 3.9 mL/min/kg
- CLhep predicted at 1 µM [5]: 42 mL/min/kg
- Ki [7]: 71 nM

SMILES: O=C(c1ccc2cnc(NC3CCOCC3)cc2n1)N1CCC1
- Ratio Ki [8]: 1.8
- Ki [7]: 13 nM

SMILES: O=C(N[C@H](CO)c1ccc(Cl)c(F)c1)c1ccc2cnc(NC3CCOCC3)nc2n1
- Ki [18]: 0.17 nM
- Ki [7]: 6.5 nM

SMILES: CNS(=O)(=O)c1ccc(Nc2ncc3ccc(C(=O)N4C[C@H](F)[C@@H]4C)nc3n2)c(F)c1
- Papp A→B at 5 µM [1]: 13 ×10⁻⁶ cm/s
- IC50 [2]: 360 nM
- Ratio Ki [3]: 41
- CLhep predicted at 1 µM [4]: 19 mL/min/kg
- CLhep predicted at 1 µM [5]: 54 mL/min/kg
- Ratio IC50 [6]: 36
- Ki [7]: 2.1 nM

SMILES: CNS(=O)(=O)c1ccc(Nc2ncc3ccc(C(=O)N4C[C@@H](F)C[C@@H]4C)cc3n2)c(C)c1
- Papp A→B at 5 µM [1]: 12 ×10⁻⁶ cm/s
- IC50 [2]: 130 nM
- Ratio Ki [3]: 155
- CLhep predicted at 1 µM [4]: 16 mL/min/kg
- CLhep predicted at 1 µM [5]: 69 mL/min/kg
- Ratio IC50 [6]: 43
- Ki [7]: 0.49 nM
